Consider four compounds from patent US10906878B2, “Kinase inhibitors for the treatment of disease” (Dana-Farber Cancer Institute, Inc., priority 2013, dated 2021).

For data set [1], the target named is EGFR L858R Ba/F3 cells (Homo sapiens (Human), UniProt P00533, L858R). The data set can be described thus: Ba/F3 cell growth inhibition (MTS assay), EGFR L858R. Format: cell-based. In general terms: Formazan colour is commonly taken as a measure of viable cells.
The target in data set [2] is EGFR Del/T790M Ba/F3 cells (Homo sapiens, UniProt P00533, T790M, cells depend on it, form not given). Description: Ba/F3 cell growth inhibition (MTS assay), EGFR Del/T790M. Format: cell-based.
The target in data set [3] is EGFR L858R/T790M/L718Q Ba/F3 cells (Homo sapiens (Human), UniProt P00533, L718Q/L858R/T790M). Description: Ba/F3 cell growth inhibition (MTS assay), EGFR L858R/T790M/L718Q. Format: cell-based. The text has this:
(§1) The specific cDNAs encoding the oncogenic alterations (EGFR: Del 19, L858R, L718Q, L844V, Del/T790M, L858R/T790M, Del 19/L718Q, Del 19/L844V, Del 19/T790M/L718Q and L858R/T790M/L718Q; FGFR: TEL-FGFR1, TEL-FGFR2, TEL-FGFR1 V561M, TEL-FGFR2 V561M; ALK: EML4-ALK; ROS1: CD74-ROS1) were cloned into the pDNA-Dual (BD Biosciences) vector using standard molecular biology techniques. Mutations were introduced using site-directed mutagenesis (Agilent) with mutant specific primers according to the manufacturer's instructions. All constructs were confirmed by DNA sequencing. The constructs were introduced into Ba/F3 cells using retroviral infection. Polyclonal cell lines were established by puromycin selection and subsequently cultured in the absence of interleukin-3 (IL-3). Uninfected Ba/F3 cells or cell lines expressing green fluorescent protein (GFP) were used as controls.
(§2) Growth and inhibition of growth was assessed by MTS assay. This assay, a colorimetric method for determining the number of viable cells, is based on the bioreduction of 3-(4,5-dimethylthiazol-2-yl)-5-(3-carboxymethoxyphenyl)-2-(4-sulfophenyl)-2H-tetrazolium (MTS) by cells to a formazan product that is soluble in cell culture medium, can be detected spectrophotometrically and was performed according to the manufacturer's recommended conditions. Ba/F3 cells were exposed to treatment for 72 hours and the number of cells used per experiment determined empirically to assure linear growth kinetics over that time period. All experimental points were set up in six to twelve wells and all experiments were repeated at least three times. […] The curves were fitted using a non-linear regression model with a sigmoidal dose response.

Data set [4] in a line: Microsome Stability Mouse. The note with it: mouse microsomes. Format: in vitro ADME.
In data set [5] the target is EGFR L858R/T790M Ba/F3 cells (Homo sapiens (Human), UniProt P00533, L858R/T790M). Description: Ba/F3 cell growth inhibition (MTS assay), EGFR L858R/T790M. Format: cell-based.
From the text: as §1, §2

For data set [6], the target named is EGFR Wild type vIII Ba/F3 cells (Homo sapiens (Human), UniProt P00533, DELINS30-297G). The data set can be described thus: Ba/F3 cell growth inhibition (MTS assay), EGFR Wild type vIII. Format: cell-based. Particulars: Assay 1, read-out: EGFR Ba/F3 cells IC 50 (nM) Assay 1 Wild type vIII.
Data set [7] addresses EGFR Del Ba/F3 cells (Homo sapiens, UniProt P00533, cells depend on it, form not given). The data set can be described thus: Ba/F3 cell growth inhibition (MTS assay), EGFR Del. Format: cell-based.
For data set [8], the target named is BTK (Homo sapiens (Human), UniProt Q06187). The data set can be described thus: BTK kinase assay (LanthaScreen Kinase assay). Format: biochemical. The method, then:
BTK kinase assay was conducted using LanthaScreen® Kinase assay.
1. Optimization of kinase concentration required to determine ATP Km,app. The assay was first performed at a high concentration of ATP (1 mM) against a dilution series of kinase in order to determine the amount of kinase required to elicit an approximately 80% change between the minimum and maximum TR-FRET emission ratios (the EC80 value).
2. Determination of ATP Km,app. Using the concentration of enzyme determined in step 1, the assay was then performed against a dilution series of ATP in order to determine the amount of ATP required to elicit a 50% change between the minimum and maximum TR-FRET emission ratios (the EC50 value). This concentration of ATP was referred to as the “apparent” Km value for ATP, or the ATP Km,app.
3. Optimization of kinase concentration required for assay at ATP Km,app. Using the ATP Km,app concentration of ATP determined in step 2, the kinase titration was repeated in order to determine the concentration of kinase required to elicit an approximately 80% change between the minimum and maximum TR-FRET emission ratios at the ATP Km,app concentration of ATP (the EC80 value). This was the concentration of kinase that will be used in an assay to determine an IC50 value for a compound of the invention.
Using the ATP and kinase concentrations determined above, the reaction was then performed in the presence of a dilution series of various compounds of the invention, and the amount of compounds required to elicit a 50% change in TR-FRET ratio (the IC50) was determined. The experiments can be performed over two days, with steps one and two being performed on the first day, and step three and the inhibitor IC50 determination(s) being performed on the second day.
On the technique in general: In TR-FRET formats the signal depends on donor and acceptor labels being close together.

Data set [9] has as its target EGFR L718Q/L858R Ba/F3 cells (Homo sapiens (Human), UniProt P00533, L718Q/L858R). The data set can be described thus: Ba/F3 cell growth inhibition (MTS assay), EGFR L858R/L718Q. Format: cell-based. The note with it: 100 nM drug; Table F.
Data set [10] relates to KIF5B/Ret_V804M. Description: Ba/F3 cell growth inhibition (MTS assay), KIF5B/Ret_V804M. Format: cell-based. The procedure: as §2
In data set [11] the target is EGFR Del/T790M/L718Q Ba/F3 cells (Homo sapiens, UniProt P00533, L718Q/T790M, cells depend on it, form not given). Format: cell-based.
From the text: as §1, §2

BTK, sequence (Q06187 whole entry): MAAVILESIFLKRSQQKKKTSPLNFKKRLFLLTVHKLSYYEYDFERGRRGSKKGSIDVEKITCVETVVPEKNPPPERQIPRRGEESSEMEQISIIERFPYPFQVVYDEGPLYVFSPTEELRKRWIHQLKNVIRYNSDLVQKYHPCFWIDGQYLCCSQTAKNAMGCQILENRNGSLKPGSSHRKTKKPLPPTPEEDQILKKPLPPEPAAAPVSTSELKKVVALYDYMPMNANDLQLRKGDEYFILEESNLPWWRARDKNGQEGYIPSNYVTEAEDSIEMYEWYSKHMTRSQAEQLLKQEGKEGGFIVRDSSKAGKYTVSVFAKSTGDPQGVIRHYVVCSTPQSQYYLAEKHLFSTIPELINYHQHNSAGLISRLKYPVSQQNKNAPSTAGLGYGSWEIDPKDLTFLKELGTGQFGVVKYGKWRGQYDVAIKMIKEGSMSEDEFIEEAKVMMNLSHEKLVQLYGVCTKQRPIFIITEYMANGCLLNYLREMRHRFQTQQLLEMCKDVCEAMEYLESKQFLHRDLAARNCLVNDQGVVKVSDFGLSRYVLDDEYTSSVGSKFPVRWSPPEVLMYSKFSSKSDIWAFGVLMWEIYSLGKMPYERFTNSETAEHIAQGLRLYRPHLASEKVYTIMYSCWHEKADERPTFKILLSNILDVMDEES

Regarding `C=CC(=O)Nc1cccc(N(C(=O)N[C@@H](C)c2ccccc2)c2cc(Nc3ccc(N4CCN(C)CC4)cc3OC)ncn2)c1` [Compound 34A], the IC50 was 0.51 nM in data set [1] (Assay 1, L858R, read-out: EGFR Ba/F3 cells IC 50 (nM) Assay 1 L858R); 60.4 nM in data set [2] (Assay 1, Del/T790M, read-out: EGFR Ba/F3 cells IC 50 (nM) Assay 1 Del/T790M); 312 nM in [3] (Assay 1, T/L/L718Q, read-out: EGFR Ba/F3 cells IC 50 (nM) Assay 1 T/L/L718Q); 20 nM in data set [5] (Assay 1, L858R/T790M, read-out: EGFR Ba/F3 cells IC 50 (nM) Assay 1 L858R/T790M); 10.1 nM in data set [6]; 19.7 nM in data set [7] (Assay 1, Del, read-out: EGFR Ba/F3 cells IC 50 (nM) Assay 1 Del). The “Microsome Stability Mouse min” value in [4] was found to be 9.4 min.
`CN(C)C/C=C/C(=O)Nc1cccc(N(C(=O)OCc2ccccc2)c2ccnc3[nH]ccc23)c1` [Compound 104A] yielded an IC50 in data set [8] of over 10000 nM.
Turning to `C=CC(=O)Nc1cccc(Oc2nc(Nc3ccc(N4CCN(C)CC4)cc3OC)ncc2Cl)c1` [WZ4002, reference compound], the “EGFR activity (% Control, 100 nM drug) L858R” value in [1] (Table F) came to 2 % Control. In [1] (Table G), the “EGFR activity (% Control, 100 nM drug) L858R” value was 0 % Control. In addition, the “EGFR activity (% Control, 1.0 μM drug) Assay 1 L858R” value in [1] (1.0 μM drug, Assay 1) is given as 2 % Control. For the same compound, the “EGFR activity (% Control, 1.0 μM drug) Assay 2 L858R” value in [1] (1.0 μM drug, Assay 2) came to 2 % Control. Further, in data set [9], the “EGFR activity (% Control, 100 nM drug) L858R/L718Q” value is recorded as 94 % Control. In data set [2], the “EGFR activity (% Control, 100 nM drug) DEL/T790M” value is recorded as 2 % Control; the “EGFR activity (% Control, 100 nM drug) Del/T790M” value amounted to 6 % Control; the “EGFR activity (% Control, 1.0 μM drug) Assay 1 Del/T790M” value is 1 % Control; the “EGFR activity (% Control, 1.0 μM drug) Assay 2 Del/T790M” value came to 3 % Control. Moreover, in data set [3] (100 nM drug, Table F), the “EGFR activity (% Control, 100 nM drug) L858R/T790M/L718Q” value was determined as 104 % Control. For the same compound, the “EGFR activity (% Control, 1.0 μM drug) Assay 1 KIF5B/Ret_V804M” value in data set [10] is recorded as 93 % Control. The “EGFR activity (% Control, 100 nM drug) L858R/T790M” value in [5] (Table F) is given as 3 % Control. In addition, the “EGFR activity (% Control, 100 nM drug) L858R/T790M” value in data set [5] (Table G) was found to be 30 % Control. In data set [11], the “EGFR activity (% Control, 1.0 μM drug) Assay 1 Del/T790M/L718Q” value is 91 % Control and the “EGFR activity (% Control, 1.0 μM drug) Assay 2 Del/T790M/L718Q” value is 85 % Control. Further, in data set [7], the “EGFR activity (% Control, 1.0 μM drug) Assay 1 Del” value was 3 % Control and the “EGFR activity (% Control, 1.0 μM drug) Assay 2 Del” value stood at 6 % Control.
`C=CC(=O)Nc1cccc(N(C(=O)OCc2ccccc2)c2ccnc3[nH]ccc23)c1` [Compound 103A] showed an IC50 in data set [8] of 2240 nM.
